Results from patent US9540389B2, “Antimicrobial potentiators” (priority 2013, dated 2017).

How the values were obtained:
Assay in all cases: Time-kill assay (CIP and/or EPI)
Assay type in all cases: cell-based
[1] = tested on: E. aerogenes ATCC 13048; settings: Enterobacter aerogenes; 25 μM EPI + CIP 0.5 or 1×MIC
Description: (§1) Panel (C): Bactericidal activity of CIP alone, 25 μM MBX2319 alone, or 25 μM MBX2319 combined with a bacteriostatic concentration of CIP against E. coli AB1157 and isogenic efflux defective mutants after 2 hours exposure. […] Panel (D): Bactericidal activity of CIP alone, 25 μM MBX2319 alone, 25 μM PAβN alone, and a bacteriostatic concentration of CIP combined with 25 μM MBX2319 or combined with 25 μM PAβN against the following organisms: a) E. coli AB1157, b) E. coli ATCC 25922, c) K. pneumoniae ATCC 700603, d) S. flexneri ATCC 12022, e) S. enterica ATCC 14028, f) E. aerogenes ATCC 13048.
(§2) • Strains and Reagents. The following strains were obtained from the Keio collection (Baba, et al.: Construction of Escherichia coli K-12 in-frame, single-gene knockout mutants: the Keio collection. In Mol Syst Biol, vol. 2, pp. 2006 0008, (2006)): JW0451 (ΔacrB::kan), JW5503 (ΔtolC::kan), JW3234 (ΔacrF::kan), JW2661 (ΔemrB::kan), JW0863 (ΔmacB::kan). The deletion mutations in each of these strains were transferred to AB1157 using P1 phage transduction (see Table 1). […] The minimal inhibitory concentration (MIC) of antibacterial agents and biocides were determined using the microbroth dilution method essentially as described in the CLSI protocol M7-A7 (CLSI: Method for dilution antimicrobial susceptibility testing for bacteria that grow aerobically; Approved standard-document M7-A7. In Clinical and Laboratory Standards Institute document M7-A7, Clinical and Laboratory Standards Institute, Wayne, Pa., (2006)), with the following exceptions. […] MIC assays were performed in triplicate and the geometric mean was calculated. […] Viability was monitored over 2-4 hours by making serial dilutions in saline and spotting 5 μl of each dilution onto the surface of an LB agar plate in triplicate. Colonies were counted after the plates were incubated at 37° C. for 16-18 hr, colony forming units (CFU) per ml were calculated, and the average and standard deviation for the three replicates was determined. […]

[2] = tested on: S. enterica ATCC 14028; settings: Salmonella enterica; 25 μM EPI + CIP 0.5 or 1×MIC
Description: as §1, §2

[3] = tested on: K. pneumoniae ATCC 700603; settings: Klebsiella pneumoniae; 25 μM EPI + CIP 0.5 or 1×MIC
Description: as §1, §2

Measured: decreased viability as compared to CIP alone

CC1(C)Cc2c(C#N)c(SCCc3ccccc3)nc(N3CCOCC3)c2CO1 [MBX2319]
100-1000 fold: [1] | [2] | [3]
